Test results reported in ChEMBL document CHEMBL4396926, “Design, Synthesis and Anticancer Evaluation of New Substituted Thiophene-Quinoline Derivatives” (Bioorg Med Chem, 2019).

How the values were obtained:
HeLa [1] = assay: Cytotoxicity against human HeLa cells assessed as cell growth inhibition at 3.125 to 100 uM incubated for 72 hrs and measured after 2 hrs by microplate reader based WST-1 assay relative to control; assay type: functional
HCT-116 [2] = assay: Cytotoxicity against human HCT116 cells assessed as cell growth inhibition at 3.125 to 100 uM incubated for 72 hrs and measured after 2 hrs by microplate reader based WST-1 assay relative to control; assay type: functional
HeLa [3] = assay: Cytotoxicity against human HeLa cells assessed as increase in growth inhibition by measuring decrease in cell viability incubated for 72 hrs and measured after 2 hrs by microplate reader based WST-1 assay; assay type: functional; details: hela
HCT-116 [4] = assay: Cytotoxicity against human HCT116 cells assessed as increase in growth inhibition by measuring decrease in cell viability incubated for 72 hrs and measured after 2 hrs by microplate reader based WST-1 assay; assay type: functional; details: hct-116
HepG2 [5] = assay: Cytotoxicity against human HepG2 cells assessed as cell growth inhibition at 3.125 to 100 uM incubated for 72 hrs and measured after 2 hrs by microplate reader based WST-1 assay relative to control; assay type: functional
HepG2 [6] = assay: Cytotoxicity against human HepG2 cells assessed as increase in growth inhibition by measuring decrease in cell viability incubated for 72 hrs and measured after 2 hrs by microplate reader based WST-1 assay; assay type: functional
MCF7 [7] = assay: Cytotoxicity against human MCF7 cells assessed as increase in growth inhibition by measuring decrease in cell viability incubated for 72 hrs and measured after 2 hrs by microplate reader based WST-1 assay; assay type: functional
MCF7 [8] = assay: Cytotoxicity against human MCF7 cells assessed as cell growth inhibition at 3.125 to 100 uM incubated for 72 hrs and measured after 2 hrs by microplate reader based WST-1 assay relative to control; assay type: functional
DNA topoisomerase II [9] = target: T1, DNA topoisomerase II (Homo sapiens, UniProt P11388+Q02880); assay: Inhibition of DNA topoisomerase 2 in human MCF7 cells at 5 uM incubated for 18 to 24 hrs by kinase assay relative to control; assay type: cell-based
DNA topoisomerase II [10] = target: T1, DNA topoisomerase II; assay: Inhibition of DNA topoisomerase 2 in human MCF7 cells incubated for 18 to 24 hrs by kinase assay; assay type: cell-based
DNA topoisomerase II [11] = target: T1, DNA topoisomerase II; assay: Inhibition of DNA topoisomerase 2 in human MCF7 cells at 25 uM incubated for 18 to 24 hrs by kinase assay relative to control; assay type: cell-based
DNA topoisomerase II [12] = target: T1, DNA topoisomerase II; assay: Inhibition of DNA topoisomerase 2 in human HeLa cells at 0.2 uM incubated for 18 to 24 hrs by kinase assay relative to control; assay type: cell-based
DNA topoisomerase II [13] = target: T1, DNA topoisomerase II; assay: Inhibition of DNA topoisomerase 2 in human HeLa cells at 1 uM incubated for 18 to 24 hrs by kinase assay relative to control; assay type: cell-based
DNA topoisomerase II [14] = target: T1, DNA topoisomerase II; assay: Inhibition of DNA topoisomerase 2 in human HeLa cells incubated for 18 to 24 hrs by kinase assay; assay type: cell-based
MCF7 [15] = assay: Induction of apoptosis in human MCF7 cells assessed as increase in caspase 3 activation by measuring fold increase in caspase 3 level by fluorescence based solid phase sandwich ELISA; assay type: functional
HeLa [16] = assay: Induction of apoptosis in human HeLa cells assessed as increase in caspase 3 activation by measuring fold increase in caspase 3 level by fluorescence based solid phase sandwich ELISA; assay type: functional
[17] = target: Epidermal growth factor receptor (Homo sapiens, UniProt P00533); assay: Inhibition of EGFR-TK in human MCF7 cells overexpressing EGFR incubated for 18 to 24 hrs by kinase assay; assay type: cell-based
MCF7 [18] = assay: Induction of apoptosis in human MCF7 cells assessed as early apoptotic cells after 24 hrs by Annexin V-FITC/propidium iodide staining-based FACS analysis (reference value: 0.29%); assay type: functional
MCF7 [19] = assay: Induction of apoptosis in human MCF7 cells assessed as late apoptotic cells after 24 hrs by Annexin V-FITC/propidium iodide staining-based FACS analysis (reference value: 0.22%); assay type: functional
DNA topoisomerase II [20] = target: T1, DNA topoisomerase II; assay: Inhibition of DNA topoisomerase 2 in human MCF7 cells at 1 uM incubated for 18 to 24 hrs by kinase assay relative to control; assay type: cell-based
MCF7 [21] = assay: Induction of apoptosis in human MCF7 cells after 24 hrs by Annexin V-FITC/propidium iodide staining-based FACS analysis; assay type: functional, cell-based
MCF7 [22] = assay: Induction of apoptosis in human MCF7 cells assessed as viable cells after 24 hrs by Annexin V-FITC/propidium iodide staining-based FACS analysis (reference value: 99.34%); assay type: functional
DNA topoisomerase II [23] = target: T1, DNA topoisomerase II; assay: Inhibition of DNA topoisomerase 2 in human MCF7 cells at 0.2 uM incubated for 18 to 24 hrs by kinase assay relative to control; assay type: cell-based
MCF7 [24] = assay: Cell cycle arrest in human MCF7 cells assessed as accumulation at G2/M phase at IC50 after 24 hrs by propidium iodide staining based FACS analysis (reference value: 4.82%); assay type: functional
MCF7 [25] = assay: Induction of apoptosis in human MCF7 cells assessed as increase in caspase 9 activation by measuring fold increase in caspase 9 level by fluorescence based solid phase sandwich ELISA; assay type: functional
MCF7 [26] = assay: Induction of apoptosis in human MCF7 cells assessed as necrotic cells after 24 hrs by Annexin V-FITC/propidium iodide staining-based FACS analysis (reference value: 0.15%); assay type: functional
MCF7 [27] = assay: Cell cycle arrest in human MCF7 cells assessed as accumulation at S phase at IC50 after 24 hrs by propidium iodide staining based FACS analysis (reference value: 27.13%); assay type: functional
MCF7 [28] = assay: Cell cycle arrest in human MCF7 cells assessed as accumulation at pre G1/apoptotic phase at IC50 after 24 hrs by propidium iodide staining based FACS analysis (reference value: 0.66%); assay type: functional
MCF7 [29] = assay: Cell cycle arrest in human MCF7 cells assessed as accumulation at G0/G1 phase at IC50 after 24 hrs by propidium iodide staining based FACS analysis (reference value: 67.39%); assay type: functional
[30] = Homo sapiens, MCF7, read-out: IC50

Sequence of Epidermal growth factor receptor (P00533 whole entry): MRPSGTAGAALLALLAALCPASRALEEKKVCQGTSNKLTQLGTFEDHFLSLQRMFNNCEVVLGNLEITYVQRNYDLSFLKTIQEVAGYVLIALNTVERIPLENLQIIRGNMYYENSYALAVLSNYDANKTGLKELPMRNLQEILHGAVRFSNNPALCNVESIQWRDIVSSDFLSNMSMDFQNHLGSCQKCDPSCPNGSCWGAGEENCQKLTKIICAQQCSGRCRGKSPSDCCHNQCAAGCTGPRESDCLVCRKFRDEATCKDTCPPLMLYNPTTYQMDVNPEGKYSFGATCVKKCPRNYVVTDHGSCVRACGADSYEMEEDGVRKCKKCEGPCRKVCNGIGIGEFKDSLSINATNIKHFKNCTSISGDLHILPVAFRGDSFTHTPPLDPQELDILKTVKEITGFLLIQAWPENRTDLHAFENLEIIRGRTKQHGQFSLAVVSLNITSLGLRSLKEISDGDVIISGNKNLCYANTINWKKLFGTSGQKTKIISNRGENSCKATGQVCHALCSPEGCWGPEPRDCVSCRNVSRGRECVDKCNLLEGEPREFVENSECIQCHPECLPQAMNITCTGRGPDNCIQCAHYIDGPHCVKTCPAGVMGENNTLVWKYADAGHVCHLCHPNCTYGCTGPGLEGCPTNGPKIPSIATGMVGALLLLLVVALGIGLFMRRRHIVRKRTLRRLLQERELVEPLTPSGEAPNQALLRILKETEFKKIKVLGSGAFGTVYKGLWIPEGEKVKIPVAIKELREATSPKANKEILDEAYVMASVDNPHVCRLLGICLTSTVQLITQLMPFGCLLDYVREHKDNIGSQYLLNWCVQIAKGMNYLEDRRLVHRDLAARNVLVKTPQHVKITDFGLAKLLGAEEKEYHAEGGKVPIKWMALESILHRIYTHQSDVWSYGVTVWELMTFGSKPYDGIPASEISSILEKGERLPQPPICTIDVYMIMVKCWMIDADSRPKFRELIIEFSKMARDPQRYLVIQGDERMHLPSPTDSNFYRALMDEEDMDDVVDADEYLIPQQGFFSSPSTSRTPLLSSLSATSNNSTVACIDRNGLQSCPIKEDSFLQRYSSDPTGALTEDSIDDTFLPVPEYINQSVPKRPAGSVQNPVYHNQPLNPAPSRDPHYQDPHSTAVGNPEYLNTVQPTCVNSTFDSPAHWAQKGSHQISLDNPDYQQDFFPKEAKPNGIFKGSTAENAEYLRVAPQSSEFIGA

Structure (SMILES)	growth inhibition (GI) (HeLa [1]) [%]	growth inhibition (GI) (HCT-116 [2]) [%]	IC50 (HeLa [3])	IC50 (HCT-116 [4])	growth inhibition (GI) (HepG2 [5]) [%]	growth inhibition (GI) (MCF7 [8]) [%]	other results
Clc1nc2ccccc2cc1C(OCc1ccccc1)c1cccs1 (configuration not stated)	<10	<10	Not Active	Not Active	<10	45.63	IC50 (HepG2 [6]; hepg2): Not Active; IC50 (MCF7 [7]; [30]): 108 µM
CC[C@@]1(O)C(=O)OCc2c1cc1n(c2=O)Cc2cc3c(CN(C)C)c(O)ccc3nc2-1 [TOPOTECAN]	–	–	–	–	–	–	inhibition (DNA topoisomerase II [9]): 85.6%; IC50 (DNA topoisomerase II [10]): 0.48 µM; inhibition (DNA topoisomerase II [11]): 92.8%; inhibition (DNA topoisomerase II [12]): 32%; inhibition (DNA topoisomerase II [13]): 66.5%; IC50 (DNA topoisomerase II [14]): 0.73 µM
Oc1ccc(-c2cc(COC(c3cccs3)c3cc4ccccc4nc3Cl)on2)cc1 (configuration not stated)	<10	14.27	Not Active	Not Active	64.51	<10	IC50 (HepG2 [6]; Homo sapiens, HepG2, read-out: IC50): 178 µM; IC50 (MCF7 [7]; mcf7): Not Active
CNC(=O)c1cc(Oc2ccc(NC(=O)Nc3ccc(Cl)c(C(F)(F)F)c3)cc2)ccn1 [SORAFENIB]	–	–	–	–	–	–	fold change (FC) (MCF7 [15]): 34.2; fold change (FC) (HeLa [16]): 35.5
Clc1ccc(COC(c2cccs2)c2cc3ccccc3nc2Cl)cc1 (configuration not stated)	30.41	<10	Not Active	Not Active	<10	47.94	IC50 [17]: 3.66 µM; Activity (MCF7 [18]): 6.69%; Activity (MCF7 [19]): 8.67%; inhibition (DNA topoisomerase II [9]): 84.7%; fold change (FC) (MCF7 [15]): 33.7; inhibition (DNA topoisomerase II [20]): 63.3%; Activity (MCF7 [21]): Dose-dependent effect; Activity (MCF7 [22]): 82.72%; inhibition (DNA topoisomerase II [23]): 36.3%; IC50 (HepG2 [6]; hepg2): Not Active; Activity (MCF7 [24]): 23.14%; fold change (FC) (MCF7 [25]): 29; Activity (MCF7 [26]): 1.6%; IC50 (DNA topoisomerase II [10]): 0.44 µM; Activity (MCF7 [27]): 15.35%; Activity (MCF7 [28]): 17.05%; inhibition (DNA topoisomerase II [11]): 93.2%; IC50 (MCF7 [7]; [30]): 28.3 µM; Activity (MCF7 [29]): 44.28%
COc1cc(-c2cc(COC(c3cccs3)c3cc4ccccc4nc3Cl)on2)cc(OC)c1OC (configuration not stated)	<10	<10	–	–	14.57	<10	–
FC(F)(F)c1cccc(COC(c2cccs2)c2cc3ccccc3nc2Cl)c1 (configuration not stated)	42.42	23.22	Not Active	Not Active	<10	52.9	IC50 (HepG2 [6]; hepg2): Not Active; IC50 (MCF7 [7]; [30]): 101 µM
COc1ccc(-c2cc(COC(c3cccs3)c3cc4ccccc4nc3Cl)on2)cc1 (configuration not stated)	<10	20.31	–	–	17.93	<10	–
Clc1ccc(-n2cc(COC(c3cccs3)c3cc4ccccc4nc3Cl)nn2)cc1 (configuration not stated)	<10	23.13	–	–	8.39	<10	–
Clc1nc2ccccc2cc1C(OCc1ccc(Br)cc1)c1cccs1 (configuration not stated)	30.89	21.98	–	–	<10	<10	–
Cc1cc(C)cc(-c2cc(COC(c3cccs3)c3cc4ccccc4nc3Cl)on2)c1 (configuration not stated)	<10	<10	–	–	<10	<10	–
